Measured values as given in patent US12201626B2, “Bifunctional compositions for the treatment of cancer” (ARMACEUTICA, INC., priority 2018, dated 2025).
Where two headings read alike, the source gives them in different places. Where a SMILES comes first, the peptide text is derived from it. The star is where a group is joined. Cbz = O=C(OCc1ccccc1)*

Tests used:
MDA-MB-231 cells = assay: Phosphatidylserine externalization, annexin V-FITC/PI flow cytometry; type: cell-based, human; details: positive control, 24 h
Experimental: (§1) To determine whether cell death induced by PND was occurring through apoptosis or necrosis, MDA-MB-231 and HL-60 cells were stained with annexin V-FITC and PI and monitored via flow cytometry. Cells were seeded in 24-well plates at a density of 100,000 for adherent MDA-MB-231 and 200,000 HL-60 cells in 1 ml of culture media. After overnight incubation, cells were treated with PND, and incubated for an additional 24 h. For MDA-MB-231 cells, unattached cells were harvested in an ice-cold tube, while adhered cells were detached by using HyQtase (Thermo Fisher) and incubated for around 5 min at 37° C. Both unattached and detached cells harvested from each individual well were washed with ice-cold PBS and centrifuged at 260×g for 5 min. HL-60 were centrifuged directly after the incubation period as they grow in suspension. Cells were then stained with a mixture of annexin V-FITC and PI in 100 μl of binding buffer and incubated on ice in the dark for 15 minutes, following the manufacturer's instructions (Beckman Coulter). Lastly, the cells were resuspended by the addition of 400 μl of ice-cold binding buffer and analysed by flow cytometry (Cytomics FC500; Beckman Coulter). For this series of experiments, cells treated with PBS, as solvent control; treated with H2O2, as a positive control of cytotoxicity; and untreated were included and processed in parallel. For each sample, 10,000 events/cells were collected and analysed using CXP software (Beckman Coulter). Both the experimental samples and their controls were processed similarly and assessed in triplicate. The sum of both early and late stages of apoptosis was calculated to obtain the total percentage of apoptotic cells.

HL-60 cells = assay: as above; type: cell-based, human; details: positive control, 24 h
Experimental: as §1

[1] = test system: MDA-MB-231 breast cancer line; assay: cells; type: cell-based, human
Experimental: PND was added to cultures of the MDA-MB-231 breast cancer line 24 hours after the cells were treated with a selection of known commercial chemotherapeutic drugs, before the cells were analyzed for cell death. Each of the drugs are known to have serious side-effects at the does commonly administered for the treatment of cancer. The dose of the chemotherapeutic drugs was reduced to one half, one fourth, one eighth, and one sixteenth of the initial dose; while the dose of PND was kept the same. The effect of these combinational therapies was measured by the concentration of each compound needed to be cytotoxic to at least 50 percent of cancer cells (CC50).

[2] = test system: plasmid dsDNA (pCMV-dR8.91); assay: DNA mobility-shift assay (agarose gel); type: binding; set-up: DNA mobility shift: unit of the concentration uncertain
Experimental: Typically, an experimental compound intercalating or binding to double stranded (ds) DNA will increase the molecular mass resulting from forming complexes, decreasing its electrophoretic mobility in an agarose gel, as compared with untreated dsDNA. To explore the potential interaction between PND and dsDNA, a DNA mobility-shift assay was conducted. Each reaction mixture was of 10 μl total volume in PBS pH 7.4. Both PND (Sigma-Aldrich) and quinacrine (Sigma-Aldrich) were tested with three individual concentrations of 1 μM, 0.5 μM or 0.25 μM, respectively. To each reaction mixture, 100 ng of plasmid dsDNA (pCMV-dR8.91; Addgene, Cambridge, MA) was added and the mixture was then incubated for 30 min at 37° C. and stopped by adding 2 μl of 6× gel loading buffer and placed on ice. The potential binding interaction between both PND and quinacrine with dsDNA were analyzed by using 1% (w/v) agarose-gel electrophoresis dissolved in TAE buffer (0.04 M Tris base, 0.04 M acetate and 0.001 M EDTA) pH 8.0. To stain the dsDNA complexes, Ethidium bromide was added to the agarose gel throughout the electrophoresis process at a concentration of 0.5 μg/ml. DNA migration was visualized by utilizing a gel documentation system and pictures were captured by using a UV-light transilluminator (Alpha Innotech, San Leandro, CA). The well-known DNA intercalator fluorescent compound, propidium iodide (PI), was included as positive controls at 1 μg per reaction. As a control, untreated plasmid DNA was included to determine its normal electrophoretic mobility in the gel.

[3] = Homo sapiens, MDA-MB-231, read-out: initial dose (CC50)

OO [H2O2, hydrogen peroxide]
mode of cytotoxic effect (apoptosis or necrosis) (MDA-MB-231 cells): apoptosis | mode of cytotoxic effect (apoptosis or necrosis) (HL-60 cells): necrosis

N.N.[Cl][Pt][Cl] [cisplatin]
CC50 [1]: 95400 nM

CCN(CC)CCCC(C)Nc1c2ccc(Cl)cc2nc2ccc(OC)cc12 (stereo not shown) [quinacrine]
DNA mobility shift ([2]; 0.5 and 0.25 mM, 100 ng plasmid DNA): clear retardation mobility of the DNA | DNA mobility shift ([2]; 1 (unit uncertain), 100 ng plasmid DNA, 30 min 37° C.): maximum retardation of DNA mobility | DNA degradation ([2]; fragments smaller than free supercoiled DNA): did not exhibit any DNA degradation activity

CC[N+](C)(CC)CCC[n+]1c(-c2ccccc2)c2cc(N)ccc2c2ccc(N)cc21.[I-].[I-] [PI, propidium iodide]
DNA mobility shift ([2]; positive control, 1 μg per reaction): provoked retardation of the DNA mobility

CC(C)C[C@@H](C=O)NC(=O)[C@H](CC(C)C)NC(=O)[C@H](CC(C)C)NC(=O)OCc1ccccc1 [MG132] (Cbz-Leu-Leu-Leu-aldehyde)
CC50 [1, 3]: 500 nM

Nc1ccn([C@@H]2O[C@H](CO)[C@@H](O)C2(F)F)c(=O)n1 [gemcitabin]
CC50 [1, 3]: 440 nM

CC(C)C[C@H](NC(=O)[C@H](Cc1ccccc1)NC(=O)c1cnccn1)B(O)O [bortezomib]
CC50 [1, 3]: 10 nM
